A short description of data set [1]: Antioxidant activity assessed as DPPH radical scavenging activity after 30 mins by UV-spectrophotometry. It counts as physicochemical. A general note: The DPPH test is a chemical assay of radical scavenging.
Data set [2] in a line: Antioxidant activity assessed as DPPH radical scavenging activity at <= 20 ug/ml after 30 mins by UV-spectrophotometry. It counts as physicochemical. The conditions noted are these: 0.5 h.

The values below come from ChEMBL document CHEMBL3352682, “Unusual C,O-Fused Glycosylapigenins from Serjania marginata Leaves” (J Nat Prod, 2015).

SMILES strings stand for the structures. Values after ≈ are worked out from the molar mass of the structure shown.

As for `O=C(O)c1cc(O)c(O)c(O)c1` [GALLIC ACID], in data set [1], the IC50 is 8.42 mg/L (≈ 49.5 µM).

In the case of `C[C@@H]1O[C@@H](O[C@H]2C(=O)[C@@H](O)[C@H](C)O[C@@H]2c2c(O)cc3oc(-c4ccc(O)cc4)cc(=O)c3c2O)[C@H](O)[C@H](O)[C@H]1O`, in data set [1], the IC50 entry was “Not Active”. Besides, the “inhibition (INH)” value in data set [2] is “Not Active”.

Take `Oc1cc(O)c2c(c1)O[C@@]1(c3ccc(O)c(O)c3)Oc3cc(O)c4c(c3[C@@H]2[C@H]1O)O[C@H](c1ccc(O)c(O)c1)[C@H](O)C4` [PROANTHOCYANIDIN A2]: in data set [1], the IC50 stood at 9.71 mg/L (≈ 16.8 µM).

Regarding `C[C@@H]1O[C@@H](O[C@H]2C(=O)[C@@H](O)[C@H](C)O[C@@H]2c2c(O)cc(O)c3c(=O)cc(-c4ccc(O)cc4)oc23)[C@H](O)[C@H](O)[C@H]1O`, the IC50 entry in data set [1] is “Not Active”. The “inhibition (INH)” value in data set [2] was “Not Active”.

For the compound `Oc1cc(O)c2c(c1)O[C@@]1(c3ccc(O)c(O)c3)Oc3cc(O)c4c(c3[C@@H]2[C@H]1O)O[C@H](c1ccc(O)c(O)c1)[C@H](O)[C@H]4c1c(O)cc(O)c2c1O[C@H](c1ccc(O)c(O)c1)[C@H](O)C2` [CINNAMTANNIN B1], in data set [1], the IC50 stood at 5.3 mg/L (≈ 6.13 µM).

Turning to `Oc1cc(O)c2c(c1)O[C@@]1(c3ccc(O)c(O)c3)Oc3cc(O)c4c(c3[C@@H]2[C@H]1O)O[C@H](c1ccc(O)c(O)c1)[C@@H](O)C4` [PROANTHOCYANIDIN A1], the IC50 in data set [1] was found to be 8.55 mg/L (≈ 14.8 µM).

Usually IC50 stands for the concentration at which inhibition is half-maximal.
